These results are taken from patent US20240246934A1, “QUINAZOLINE-BASED COMPOUND, COMPOSITION, AND APPLICATION OF QUINAZOLINE-BASED COMPOUND” (BEIJING SCITECH-MQ PHARMACEUTICALS LIMITED, priority 2021, published 2024).

Like-named read-outs stand apart in the source and are kept apart here.

The target in data set [1] is Ba/F3 HER2 A775_G776insYVMA cells (Homo sapiens, UniProt P04626, DUP772-775, cells depend on it). Nature of the data set: Inhibition of cell proliferation, CTG method, Ba/F3 HER2 A775_G776insYVMA. Format: cell-based. The method in brief:
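Ba/F3 HER2 A775_G776insYVMA cells in RPMI1640 with 10% FBS were plated at 3000 cells/well and treated directly with compound (top 10 μM, 4-fold, 9 concentrations, duplicates).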

Data set [2] can be described thus: Pharmacokinetics in SD rats, single intravenous injection and oral administration. In kind it is in vivo, SD rat. As to conditions: for AUC(0-t) / half-life / Cmax / AUC(0-inf) / Vd / bioavailability / Tmax: SD, rat; for bioavailability: PO 10 mg/kg vs IV 3 mg/kg, read-out: F % (bioavailability). As for the experimental part:
In this assay, the pharmacokinetic characteristics of the compounds of the present application were assayed after administration of some of the compounds of the present application to SD rats by single oral administration and intravenous injection. 1. […] The mixture was stirred, vortexed and/or sonicated. Once a solution was obtained, the vehicle was gradually added to a final volume to reach the target concentration. The solution was vortexed, and sonicated to obtain a homogeneous solution. The solution was filtered through a 0.22 μm PVDF membrane. 2. […] The mixture was stirred, vortexed and/or sonicated. Once a solution was obtained, the vehicle was gradually added to a final volume to reach the target concentration. The solution was vortexed, and sonicated to obtain a homogeneous solution. […] Meanwhile, the IV group was not fasted and the PO group was fasted overnight (>12 hrs) and given food 2 hrs after drug administration. All animals had free access to water. The dosing regimen and pharmacokinetic sampling regimen are given in Table 6 and Table 7 below, respectively. […] Rats were administered according to the above regimen, and blood and brain tissue samples were collected and processed at predetermined time points (collection and processing were performed according to conventional methods in the art). […] The supernatant was diluted 2-fold with ultra-pure water, and the samples were analyzed by LC/MS. Pharmacokinetic parameters was calculated using WinNonlin software. The following pharmacokinetic parameters was calculated from the plasma drug concentration-time data: CL (clearance); Vd (apparent volume of distribution); T1/2 (elimination half-life time); Cmax (peak concentration); Tmax (time to peak); AUC (area under plasma drug concentration-time curve); MRT (mean retention time); F % (bioavailability).

In data set [3] the test system is Ba/F3 ERBB2 A775_G776insYVMA. Nature of the data set: Efficacy in nude mouse tumor-bearing model of Ba/F3 ERBB2 A775_G776insYVMA. In kind it is in vivo, BALB/c nude mice. The conditions noted are these: for effect on tumor size (in words): 30 mg/kg PO; for T/C (%): 30 mg/kg. As for the experimental part: In this assay, some compounds of the application were orally administered to a nude mouse tumor-bearing model of Ba/F3 ERBB2 A775_G776insYVMA to study the effect of the compounds of the application on tumor growth.
Preparation of the assay compound: an appropriate weight of the compound to be assayed was weighed, and completely dissolved in an appropriate volume of vehicle (DMSO). The mixture was vortexed or sonicated. Then an appropriate amount of Solutol was added and mixed well. Finally, sterilized drinking water was added and the mixture was mixed by stirring or vortexing to obtain a homogeneous solution or suspension.
Method: All the assays were authorized and agreed by the Animal Welfare Committee. Ba/F3 ERBB2 A775_G776insYVMA in a logarithmic growth period was inoculated subcutaneously into the right back of immunodeficient nude mice (BALB/c nude, female, 6-7 weeks of age, body weight 18±2 g) with 4×10^6 cells/rat. After the tumor grew to 150-200 mm^3, the animals were randomly divided into a treatment group and a control group. For the treatment group, a solution of each assay compound was given, and for the control group, a vehicle solution without the assay compound was given. Both of the treatment group and the control group were administered once a day for about 2 weeks. The dose of each assay article was 30 mg/kg (in terms of effective compound concentration), and the assay compounds were all prepared freshly for use. During the assay, the diameter of loaded tumors was measured twice a week, and the mice were weighed at the same time. The tumor volume (TV) was calculated by the formula: TV=½×a×b^2, where a and b denote length and width, respectively. Relative tumor volume (RTV) was calculated based on the measured results by the formula: RTV=Vt/V0, where V0 is the tumor volume measured at grouping and administration and Vt is the tumor volume at each measurement. The evaluation index of antitumor activity was the relative tumor proliferation rate T/C (%) calculated by the formula: T/C (%)=(TRTV/CRTV)×100%, TRTV: RTV of the administration group; CRTV: RTV of the control group. T and C denote the average tumor volume at a certain time point in the administration group and the control group, respectively.

A short description of data set [4]: Brain tissue and whole blood concentration in SD rats after oral administration. Format: in vivo. As to conditions: rat, PO 10 mg/kg, 2 h after administration; for Kp at 2 h: brain / whole blood, read-out: Brain tissue/blood ratio. As for the experimental part:
In this assay, the pharmacokinetic characteristics of the compounds of the present application were assayed after administration of some of the compounds of the present application to SD rats by single oral administration and intravenous injection.
2. […] The mixture was stirred, vortexed and/or sonicated. Once a solution was obtained, the vehicle was gradually added to a final volume to reach the target concentration. The solution was vortexed, and sonicated to obtain a homogeneous solution.
Meanwhile, the IV group was not fasted and the PO group was fasted overnight (>12 hrs) and given food 2 hrs after drug administration. All animals had free access to water. The dosing regimen and pharmacokinetic sampling regimen are given in Table 6 and Table 7 below, respectively.
Rats were administered according to the above regimen, and blood and brain tissue samples were collected and processed at predetermined time points (collection and processing were performed according to conventional methods in the art).
The supernatant was diluted 2-fold with ultra-pure water, and the samples were analyzed by LC/MS.
Brain tissues were weighed and homogenized by adding 4-fold homogenizing solution (acetonitrile/water=1/1 v/v). […] The supernatant was diluted 2-fold with ultra-pure water, and the samples were analyzed by LC/MS.

Data set [5] has as its target T1, HER2 kinase (Homo sapiens, UniProt P04626).
T1 construct: purchased Carna Biosciences 08-016
Nature of the data set: HER2 kinase assay (ULight/PT66 TR-FRET). In kind it is biochemical. The procedure, abridged: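 HER2 kinase preincubated 5 min with compounds (11-point 3-fold series, duplicates), then reacted 120 min at room temperature with ATP and ULight-poly GT peptide, each prepared at 4× working concentration (40 μM ATP, 400 nM substrate, 40 nM kinase). PT66 antibody added for 60 min, TR-FRET read; IC50 from inhibition curves.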

In data set [6] the target is EGFR^WT kinase (Homo sapiens, UniProt P00533). Nature of the data set: EGFR^WT kinase assay (ULight/PT66 TR-FRET). In kind it is biochemical. The procedure, abridged: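 Enzyme preincubated 5 min with compound (11-point 3-fold series, duplicate), then ULight-JAK-1 (Tyr1023) peptide and ATP added at 4× stocks of 400 nM and 600 μM; 120 min reaction at room temperature. PT66 antibody TR-FRET read after 60 min; IC50 fitted from inhibition rates.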

[7] abbreviates: in vivo, PO 10 mg/kg, NA: Exposure was too low to be counted.
The mark [8] stands for this setting: whole blood, NA: Exposure was too low to be counted.
Where [9] appears, read: whole blood, PO 10 mg/kg, NA: Exposure was too low to be counted.
[10] abbreviates: whole blood, read-out: Blood drug concentration.
The mark [11] stands for this setting: brain, NA: Exposure was too low to be counted, read-out: Brain tissue concentration.
Where [12] appears, read: 72 hours, read-out: Ba/F3 HER2 A775-G776insYVMA IC50.

Sequence of Ba/F3 HER2 A775_G776insYVMA cells (P04626 with tags, fused parts or gaps DUP772-775): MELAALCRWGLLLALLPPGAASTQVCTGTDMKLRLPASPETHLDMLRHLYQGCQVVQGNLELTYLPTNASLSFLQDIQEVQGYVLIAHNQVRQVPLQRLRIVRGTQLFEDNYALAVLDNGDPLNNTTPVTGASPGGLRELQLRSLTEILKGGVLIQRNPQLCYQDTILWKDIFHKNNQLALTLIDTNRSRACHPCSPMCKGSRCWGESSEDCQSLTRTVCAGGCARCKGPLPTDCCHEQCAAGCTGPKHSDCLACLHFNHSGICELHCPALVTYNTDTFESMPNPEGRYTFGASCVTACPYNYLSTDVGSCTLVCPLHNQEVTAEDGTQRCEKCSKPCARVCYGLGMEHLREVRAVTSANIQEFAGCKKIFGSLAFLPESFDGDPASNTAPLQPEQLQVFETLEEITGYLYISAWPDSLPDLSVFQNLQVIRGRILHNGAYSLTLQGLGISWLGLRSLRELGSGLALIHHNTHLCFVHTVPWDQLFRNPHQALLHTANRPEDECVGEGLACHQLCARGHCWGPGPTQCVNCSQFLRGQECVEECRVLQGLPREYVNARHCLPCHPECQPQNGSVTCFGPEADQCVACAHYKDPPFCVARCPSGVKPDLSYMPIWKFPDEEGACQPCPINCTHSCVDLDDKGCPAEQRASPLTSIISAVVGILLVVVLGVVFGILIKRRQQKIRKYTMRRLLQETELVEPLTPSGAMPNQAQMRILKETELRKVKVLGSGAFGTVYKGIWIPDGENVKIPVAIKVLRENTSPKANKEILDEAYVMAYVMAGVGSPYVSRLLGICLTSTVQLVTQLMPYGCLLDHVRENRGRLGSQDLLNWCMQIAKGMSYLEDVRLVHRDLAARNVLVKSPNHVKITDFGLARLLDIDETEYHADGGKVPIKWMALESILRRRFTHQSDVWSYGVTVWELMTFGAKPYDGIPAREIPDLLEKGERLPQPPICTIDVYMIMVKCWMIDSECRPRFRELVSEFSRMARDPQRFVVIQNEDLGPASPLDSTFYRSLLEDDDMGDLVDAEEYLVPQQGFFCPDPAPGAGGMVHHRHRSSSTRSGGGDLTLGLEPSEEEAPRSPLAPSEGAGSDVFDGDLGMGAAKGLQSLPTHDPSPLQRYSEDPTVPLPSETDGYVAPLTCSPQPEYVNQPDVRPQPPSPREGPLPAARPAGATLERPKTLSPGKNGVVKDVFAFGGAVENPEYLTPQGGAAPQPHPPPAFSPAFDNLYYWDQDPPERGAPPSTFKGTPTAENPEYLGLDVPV
T1 sequence (P04626 23-1255): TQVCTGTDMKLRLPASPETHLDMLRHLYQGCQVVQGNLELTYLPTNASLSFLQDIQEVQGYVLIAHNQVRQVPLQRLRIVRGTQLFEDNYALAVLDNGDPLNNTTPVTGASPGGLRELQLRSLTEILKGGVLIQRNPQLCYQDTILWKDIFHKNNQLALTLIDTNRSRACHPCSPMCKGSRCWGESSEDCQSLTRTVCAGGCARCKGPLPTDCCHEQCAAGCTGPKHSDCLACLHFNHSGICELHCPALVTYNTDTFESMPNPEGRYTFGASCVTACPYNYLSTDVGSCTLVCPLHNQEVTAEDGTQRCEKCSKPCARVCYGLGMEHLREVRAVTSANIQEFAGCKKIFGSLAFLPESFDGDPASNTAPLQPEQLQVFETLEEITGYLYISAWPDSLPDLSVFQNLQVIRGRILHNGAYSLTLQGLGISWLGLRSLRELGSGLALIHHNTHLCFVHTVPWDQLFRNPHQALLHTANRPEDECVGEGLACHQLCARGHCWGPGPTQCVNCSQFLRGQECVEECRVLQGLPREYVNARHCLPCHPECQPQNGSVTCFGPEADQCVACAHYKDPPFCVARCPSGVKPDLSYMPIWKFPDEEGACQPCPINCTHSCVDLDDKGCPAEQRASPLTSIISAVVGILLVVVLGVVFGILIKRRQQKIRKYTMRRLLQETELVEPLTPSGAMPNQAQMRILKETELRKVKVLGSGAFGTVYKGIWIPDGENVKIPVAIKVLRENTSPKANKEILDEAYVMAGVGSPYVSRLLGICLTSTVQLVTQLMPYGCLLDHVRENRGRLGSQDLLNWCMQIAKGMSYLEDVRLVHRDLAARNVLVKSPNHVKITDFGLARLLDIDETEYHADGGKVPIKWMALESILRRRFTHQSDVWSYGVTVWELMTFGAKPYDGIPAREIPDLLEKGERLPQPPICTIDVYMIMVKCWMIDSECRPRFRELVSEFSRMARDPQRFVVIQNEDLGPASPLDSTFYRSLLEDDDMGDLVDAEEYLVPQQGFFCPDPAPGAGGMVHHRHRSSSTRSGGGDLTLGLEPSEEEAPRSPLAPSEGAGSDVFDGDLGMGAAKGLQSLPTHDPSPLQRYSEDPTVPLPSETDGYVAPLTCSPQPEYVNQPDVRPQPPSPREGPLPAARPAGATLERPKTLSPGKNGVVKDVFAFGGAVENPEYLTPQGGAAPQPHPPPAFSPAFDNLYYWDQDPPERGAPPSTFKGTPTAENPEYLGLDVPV
Sequence of EGFR^WT kinase (P00533 25-1210): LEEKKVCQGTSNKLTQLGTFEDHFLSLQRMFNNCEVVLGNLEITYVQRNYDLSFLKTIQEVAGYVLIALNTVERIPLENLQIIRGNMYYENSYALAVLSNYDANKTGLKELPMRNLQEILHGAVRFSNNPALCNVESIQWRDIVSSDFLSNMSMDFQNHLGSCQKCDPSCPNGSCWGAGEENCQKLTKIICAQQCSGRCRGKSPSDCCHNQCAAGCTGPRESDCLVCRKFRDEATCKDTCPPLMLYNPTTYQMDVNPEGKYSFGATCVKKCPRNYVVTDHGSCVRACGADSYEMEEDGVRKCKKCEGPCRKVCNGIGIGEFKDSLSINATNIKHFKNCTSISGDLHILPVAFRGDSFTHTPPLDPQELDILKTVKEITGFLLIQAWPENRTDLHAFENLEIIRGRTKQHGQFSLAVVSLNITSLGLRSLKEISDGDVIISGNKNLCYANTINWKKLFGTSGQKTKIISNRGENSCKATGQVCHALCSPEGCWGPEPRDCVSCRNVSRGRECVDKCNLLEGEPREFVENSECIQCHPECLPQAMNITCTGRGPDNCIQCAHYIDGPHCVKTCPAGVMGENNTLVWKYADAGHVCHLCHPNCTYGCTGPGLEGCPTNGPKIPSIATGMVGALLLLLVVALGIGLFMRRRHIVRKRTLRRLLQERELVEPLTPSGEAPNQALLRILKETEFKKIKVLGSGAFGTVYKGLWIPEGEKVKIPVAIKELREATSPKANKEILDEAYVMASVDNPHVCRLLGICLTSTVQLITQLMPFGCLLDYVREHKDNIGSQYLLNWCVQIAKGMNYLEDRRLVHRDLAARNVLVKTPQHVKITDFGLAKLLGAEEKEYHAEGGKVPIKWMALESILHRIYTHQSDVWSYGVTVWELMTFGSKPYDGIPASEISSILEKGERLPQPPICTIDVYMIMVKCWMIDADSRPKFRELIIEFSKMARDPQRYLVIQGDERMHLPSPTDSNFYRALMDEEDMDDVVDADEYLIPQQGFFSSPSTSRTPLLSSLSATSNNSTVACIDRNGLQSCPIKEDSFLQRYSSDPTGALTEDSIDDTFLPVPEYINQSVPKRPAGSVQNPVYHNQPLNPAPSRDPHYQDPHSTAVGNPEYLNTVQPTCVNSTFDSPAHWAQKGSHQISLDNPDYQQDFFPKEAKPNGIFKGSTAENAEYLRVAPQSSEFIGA

Turning to `CCOc1cc2ncc(C#N)c(Nc3ccc(OCc4ccccn4)c(Cl)c3)c2cc1NC(=O)/C=C/CN(C)C` [NERATINIB, neratinib, reference compound], the GI50 in data set [1] (read-out: Ba/F3 HER2 A775-G776insYVMA IC50, 72 hours) was 10 to 100 nM. The Cl_obs in data set [2] (IV 3 mg/kg) is 20.8 ± 2.0 mL/min/kg. In addition, in data set [2] (in vivo, IV 3 mg/kg), the AUC(0-t) is 2390 ± 267 ng·h/mL and the half-life is 4.38 ± 0.55 h. In data set [2] (setting [7]), this molecule showed an AUC(0-t) of 1470 ± 637 ng·h/mL, a Cmax of 201 ± 66 ng/mL and a half-life of 2.97 ± 0.27 h. Moreover, in data set [2] (whole blood, IV 3 mg/kg), the AUC(0-inf) turned out to be 2420 ± 252 ng·h/mL and the Vd is 7.94 ± 1.71 L/kg. The bioavailability in data set [2] (setting [8]) was 18.2 ± 7.89%. Further, the AUC(0-inf) in data set [2] (setting [9]) is 1470 ± 638 ng·h/mL. Moreover, in data set [3], the “effect on tumor size (in words)” value is recorded as “still remain significant growth”. The “T/C (%)” value in data set [3] (QD×14, PO, day 14) was determined as 45.9%. The concentration at 2 h in data set [4] (setting [10]) came out at 440 ng/mL. The Kp at 2 h in data set [4] turned out to be 0.0366. Moreover, the concentration at 2 h in data set [4] (setting [11]) amounted to 14.4 ng/g.
With `COc1c(NC(=O)/C=C/[C@H]2CCCN2C(C)C)ccc2ncnc(Nc3ccc(OCc4ccccn4)c(Cl)c3)c12` [Example 24, (R,E)-N-(4-((3-chloro-4-(pyridin-2-ylmethoxy)phenyl)amino)-5-methoxyquinazolin-6-yl)-3-(1-isopropylpyrrolidin-2-yl)acrylamide], the GI50 in data set [1] (setting [12]) was in the range of 1 to 5 nM. This molecule also had a half-maximal inhibitory concentration (IC50) in data set [5] of under 10 nM. The molecule further returned a Cl_obs in data set [2] (IV 3 mg/kg) of 32.2 ± 0.5 mL/min/kg. Further, in data set [2] (whole blood, IV 3 mg/kg), the area under the curve AUC(0-inf) stood at 1550 ± 23 ng·h/mL, the exposure AUC(0-t) was 1510 ± 26 ng·h/mL, the Vd was 14 ± 1.3 L/kg and the half-life is 5.01 ± 0.45 h. In data set [2] (setting [8]), the bioavailability was 25 ± 11.2%. In addition, in data set [2] (setting [9]), the AUC(0-inf) amounted to 1470 ± 655 ng·h/mL, the area under the curve AUC(0-t) worked out at 1260 ± 561 ng·h/mL, the highest concentration (Cmax) turned out to be 86.3 ± 32.7 ng/mL and the time to peak (Tmax) worked out at 5.33 ± 2.89 h. This molecule gave a half-life in data set [2] (setting [9]) of 7.81 ± 3.71 h. This molecule returned an IC50 in data set [6] of 100 to 1000 nM. The “T/C (%)” value in data set [3] (QD×14, PO, day 14) is given as 12.4%.
Turning to `CN1CCC[C@@H]1/C=C/C(=O)Nc1ccc2ncnc(Nc3ccc(OCc4ccccn4)c(Cl)c3)c2c1OCC(F)F` [Example 11, (R,E)-N-(4-((3-chloro-4-(pyridin-2-ylmethoxy)phenyl)amino)-5-(2,2-difluoroethoxy)quinazolin-6-yl)-3-(1-methylpyrrolidin-2-yl)acrylamide], the GI50 in data set [1] (setting [12]) lay within 1 to 5 nM. Moreover, the IC50 in data set [5] and in data set [6] was under 10 nM throughout. In addition, the “T/C (%)” value in data set [3] (QD×15, PO, day 15) worked out at 5.71%.
On to `CCOc1cc2ncc(C#N)c(Nc3ccc(OCc4ccccn4)c(Cl)c3)c2cc1NC(=O)/C=C/[C@H]1CCCN1C` [PYROTINIB, pyrotinib, reference compound], for which the GI50 in data set [1] (setting [12]) fell in the range of 10 to 100 nM. The molecule further registered a Cl_obs in data set [2] (IV 3 mg/kg) of 6.04 ± 0.63 mL/min/kg. In data set [2] (whole blood, IV 3 mg/kg), the area under the curve AUC(0-inf) turned out to be 8340 ± 890 ng·h/mL, the exposure AUC(0-t) stood at 8310 ± 892 ng·h/mL, the Vd was found to be 1.81 ± 0.26 L/kg and the half-life is 3.45 ± 0.24 h. Besides, the bioavailability in data set [2] (setting [8]) was determined as 10.1 ± 4%. In addition, in data set [2] (setting [9]), the AUC(0-inf) turned out to be 2810 ± 1110 ng·h/mL, the area under the curve AUC(0-t) came out at 2790 ± 1110 ng·h/mL, the Cmax turned out to be 246 ± 76 ng/mL and the time of peak concentration (Tmax) came out at 4.33 ± 2.52 h. In addition, in data set [2] (setting [9]), the half-life was 3.6 ± 0.37 h. Moreover, in data set [3], the “effect on tumor size (in words)” value is “still remain significant growth”. In addition, the “T/C (%)” value in data set [3] (QD×14, PO, day 14) is reported as 38.3%. Moreover, the concentration at 2 h in data set [4] (setting [10]) was 884 ng/mL. Also, in data set [4], the Kp at 2 h is 0.0291. Besides, the concentration at 2 h in data set [4] (setting [11]) turned out to be 25.8 ng/g.
For the molecule `[2H]C([2H])([2H])Oc1c(NC(=O)/C=C/[C@H]2CCCN2C)ccc2ncnc(Nc3ccc(OCc4ccccn4)c(Cl)c3)c12` [Example 33, (R,E)-N-(4-((3-chloro-4-(pyridin-2-ylmethoxy)phenyl)amino)-5-(methoxy-d3)quinazolin-6-yl)-3-(1-methylpyrrolidin-2-yl)acrylamide], the GI50 in data set [1] (setting [12]) was under 1 nM. Further, the half-maximal inhibitory concentration (IC50) in data set [5] and in data set [6] was under 10 nM each time. For the same molecule, the “T/C (%)” value in data set [3] (QD×11, PO, day 11) was 12.4%.
